In ChEMBL document CHEMBL5653631, “A Potent and Selective ULK1 Inhibitor Suppresses Autophagy and Sensitizes Cancer Cells to Nutrient Stress” (iScience, 2018):

Columns and labels:
[1] = target: Serine/threonine-protein kinase NIM1 (Homo sapiens) (UniProt Q8IY84); assay: Inhibition of human recombinant NIM1 at 500 nM in presence of ATP by radiometric assay relative to control
[2] = target: Dual specificity mitogen-activated protein kinase kinase 2 (Homo sapiens) (UniProt P36507); assay: Inhibition of human recombinant MAP2K2 at 500 nM in presence of ATP by radiometric assay relative to control
Sequence of Dual specificity mitogen-activated protein kinase kinase 2 (Homo sapiens) (P36507 whole entry): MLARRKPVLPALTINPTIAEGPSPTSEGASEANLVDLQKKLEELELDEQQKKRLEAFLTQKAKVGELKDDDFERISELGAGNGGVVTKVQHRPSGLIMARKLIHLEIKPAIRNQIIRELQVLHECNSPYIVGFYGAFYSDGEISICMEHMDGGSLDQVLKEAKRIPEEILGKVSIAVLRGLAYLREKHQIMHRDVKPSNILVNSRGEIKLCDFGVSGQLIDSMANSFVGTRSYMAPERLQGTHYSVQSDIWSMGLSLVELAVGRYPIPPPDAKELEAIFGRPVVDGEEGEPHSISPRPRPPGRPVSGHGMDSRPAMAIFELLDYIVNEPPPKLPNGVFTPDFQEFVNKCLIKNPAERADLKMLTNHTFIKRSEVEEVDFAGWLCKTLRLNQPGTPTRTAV

[3] = target: Serine/threonine-protein kinase 32C (Homo sapiens) (UniProt Q86UX6); assay: Inhibition of human recombinant YANK3 at 15 nM related to control ULK1
Sequence of Serine/threonine-protein kinase 32C (Homo sapiens) (Q86UX6 whole entry): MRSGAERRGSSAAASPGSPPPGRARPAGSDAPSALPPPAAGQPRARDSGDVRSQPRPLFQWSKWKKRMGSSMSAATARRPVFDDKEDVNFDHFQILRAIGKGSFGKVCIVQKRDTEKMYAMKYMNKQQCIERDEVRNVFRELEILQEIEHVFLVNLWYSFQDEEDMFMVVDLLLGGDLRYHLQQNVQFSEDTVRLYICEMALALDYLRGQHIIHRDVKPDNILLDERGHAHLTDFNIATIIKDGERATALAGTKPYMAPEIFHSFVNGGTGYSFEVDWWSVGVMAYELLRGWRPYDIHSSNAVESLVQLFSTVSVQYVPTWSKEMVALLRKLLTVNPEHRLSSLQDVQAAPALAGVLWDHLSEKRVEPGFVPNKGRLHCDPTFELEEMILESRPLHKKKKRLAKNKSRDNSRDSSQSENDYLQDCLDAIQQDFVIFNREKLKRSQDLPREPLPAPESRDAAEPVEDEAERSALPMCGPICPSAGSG

[4] = target: T1, Rhodopsin kinase GRK1 (Homo sapiens) (UniProt Q15835); assay: Inhibition of human recombinant RHOK at 15 nM related to control ULK1
T1 sequence (whole entry): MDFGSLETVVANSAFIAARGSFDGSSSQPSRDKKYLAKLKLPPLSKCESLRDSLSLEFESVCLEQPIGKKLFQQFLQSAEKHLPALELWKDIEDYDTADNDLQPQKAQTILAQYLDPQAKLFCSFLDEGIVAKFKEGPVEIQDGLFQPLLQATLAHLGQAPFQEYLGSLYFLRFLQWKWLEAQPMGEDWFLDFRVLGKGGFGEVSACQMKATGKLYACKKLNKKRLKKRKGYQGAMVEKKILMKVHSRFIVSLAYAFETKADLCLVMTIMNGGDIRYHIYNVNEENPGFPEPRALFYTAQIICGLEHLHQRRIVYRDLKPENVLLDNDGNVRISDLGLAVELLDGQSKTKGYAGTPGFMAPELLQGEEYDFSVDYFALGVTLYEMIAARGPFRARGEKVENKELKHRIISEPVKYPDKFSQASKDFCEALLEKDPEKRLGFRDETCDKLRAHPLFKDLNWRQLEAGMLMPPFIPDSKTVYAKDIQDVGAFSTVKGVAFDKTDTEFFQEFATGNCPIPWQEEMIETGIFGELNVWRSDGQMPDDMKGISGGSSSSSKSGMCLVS

[5] = target: LIM domain kinase 1 (Homo sapiens) (UniProt P53667); assay: Inhibition of human recombinant LIMK1 at 15 nM related to control ULK1
Sequence of LIM domain kinase 1 (Homo sapiens) (P53667 whole entry, looked up, the tested form may be a part): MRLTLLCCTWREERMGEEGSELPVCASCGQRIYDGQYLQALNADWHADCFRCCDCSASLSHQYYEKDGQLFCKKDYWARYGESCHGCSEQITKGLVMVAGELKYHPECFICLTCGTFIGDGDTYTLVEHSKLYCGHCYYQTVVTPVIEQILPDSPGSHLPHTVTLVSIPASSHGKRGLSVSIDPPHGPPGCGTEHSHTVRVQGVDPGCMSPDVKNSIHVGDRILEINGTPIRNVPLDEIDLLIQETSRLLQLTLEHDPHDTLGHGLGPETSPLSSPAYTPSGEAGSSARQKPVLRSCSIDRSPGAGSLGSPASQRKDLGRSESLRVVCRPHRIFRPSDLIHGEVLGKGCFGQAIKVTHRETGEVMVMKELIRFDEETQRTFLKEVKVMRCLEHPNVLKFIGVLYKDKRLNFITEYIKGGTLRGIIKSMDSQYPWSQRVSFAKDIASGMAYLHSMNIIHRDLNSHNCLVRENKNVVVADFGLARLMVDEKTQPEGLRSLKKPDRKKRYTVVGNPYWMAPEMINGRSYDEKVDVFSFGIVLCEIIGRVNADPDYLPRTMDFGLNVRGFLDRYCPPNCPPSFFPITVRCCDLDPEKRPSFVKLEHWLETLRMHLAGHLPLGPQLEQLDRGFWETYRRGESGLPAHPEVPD

[6] = target: Receptor tyrosine-protein kinase erbB-2 (Homo sapiens) (UniProt P04626); assay: Inhibition of human recombinant ErbB2 at 15 nM related to control ULK1
Sequence of Receptor tyrosine-protein kinase erbB-2 (Homo sapiens) (P04626 whole entry): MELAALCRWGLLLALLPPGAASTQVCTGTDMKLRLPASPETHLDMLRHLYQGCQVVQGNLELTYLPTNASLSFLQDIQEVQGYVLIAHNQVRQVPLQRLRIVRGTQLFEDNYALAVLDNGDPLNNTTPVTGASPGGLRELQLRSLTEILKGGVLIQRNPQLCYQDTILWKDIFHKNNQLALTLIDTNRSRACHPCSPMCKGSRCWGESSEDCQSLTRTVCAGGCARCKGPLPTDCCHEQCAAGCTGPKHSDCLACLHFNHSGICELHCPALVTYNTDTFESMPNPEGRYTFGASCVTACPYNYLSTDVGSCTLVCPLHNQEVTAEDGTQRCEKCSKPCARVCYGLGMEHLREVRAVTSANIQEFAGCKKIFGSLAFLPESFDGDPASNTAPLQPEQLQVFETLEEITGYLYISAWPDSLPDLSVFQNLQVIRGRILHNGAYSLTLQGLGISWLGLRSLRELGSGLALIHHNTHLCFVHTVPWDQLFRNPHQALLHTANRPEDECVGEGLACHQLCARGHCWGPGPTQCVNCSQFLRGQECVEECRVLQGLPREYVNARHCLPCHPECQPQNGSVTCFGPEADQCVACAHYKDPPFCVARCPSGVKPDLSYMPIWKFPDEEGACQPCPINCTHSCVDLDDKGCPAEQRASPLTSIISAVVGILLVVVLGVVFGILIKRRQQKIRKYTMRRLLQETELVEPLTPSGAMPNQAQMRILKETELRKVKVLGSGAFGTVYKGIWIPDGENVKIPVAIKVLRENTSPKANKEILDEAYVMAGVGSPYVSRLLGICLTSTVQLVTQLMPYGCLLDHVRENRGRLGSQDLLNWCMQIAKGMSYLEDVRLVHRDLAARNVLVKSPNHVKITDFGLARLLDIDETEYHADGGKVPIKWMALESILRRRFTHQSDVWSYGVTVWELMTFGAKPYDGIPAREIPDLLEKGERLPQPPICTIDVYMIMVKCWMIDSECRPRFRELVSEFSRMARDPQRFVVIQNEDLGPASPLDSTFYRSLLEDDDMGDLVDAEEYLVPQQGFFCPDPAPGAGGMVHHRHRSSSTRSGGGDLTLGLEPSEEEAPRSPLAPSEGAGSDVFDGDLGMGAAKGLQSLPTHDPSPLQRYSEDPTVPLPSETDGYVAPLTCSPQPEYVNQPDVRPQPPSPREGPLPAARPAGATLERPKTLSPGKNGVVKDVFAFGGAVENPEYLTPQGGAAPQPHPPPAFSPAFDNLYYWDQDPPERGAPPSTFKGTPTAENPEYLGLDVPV

[7] = target: Tyrosine-protein kinase Blk (Homo sapiens) (UniProt P51451); assay: Inhibition of human recombinant BLK at 15 nM related to control ULK1
Sequence of Tyrosine-protein kinase Blk (Homo sapiens) (P51451 2-505 limits assumed): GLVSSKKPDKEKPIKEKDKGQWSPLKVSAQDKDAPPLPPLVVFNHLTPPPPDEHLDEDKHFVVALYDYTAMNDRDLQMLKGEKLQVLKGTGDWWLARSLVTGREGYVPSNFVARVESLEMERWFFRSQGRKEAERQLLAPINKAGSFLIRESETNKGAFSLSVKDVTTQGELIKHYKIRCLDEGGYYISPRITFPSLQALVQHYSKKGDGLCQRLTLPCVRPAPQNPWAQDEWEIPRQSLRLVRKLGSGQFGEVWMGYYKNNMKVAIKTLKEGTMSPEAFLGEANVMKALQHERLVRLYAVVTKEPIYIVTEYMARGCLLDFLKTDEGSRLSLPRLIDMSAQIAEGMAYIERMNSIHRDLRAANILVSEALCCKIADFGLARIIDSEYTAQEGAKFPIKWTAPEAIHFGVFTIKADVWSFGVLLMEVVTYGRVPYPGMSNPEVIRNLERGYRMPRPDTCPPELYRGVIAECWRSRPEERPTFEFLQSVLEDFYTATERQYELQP

[8] = target: T2, Protein kinase C zeta type (Homo sapiens) (UniProt Q05513); assay: Inhibition of human recombinant PKCz at 15 nM in presence of ATP by radiometric assay relative to control
T2 sequence (whole entry): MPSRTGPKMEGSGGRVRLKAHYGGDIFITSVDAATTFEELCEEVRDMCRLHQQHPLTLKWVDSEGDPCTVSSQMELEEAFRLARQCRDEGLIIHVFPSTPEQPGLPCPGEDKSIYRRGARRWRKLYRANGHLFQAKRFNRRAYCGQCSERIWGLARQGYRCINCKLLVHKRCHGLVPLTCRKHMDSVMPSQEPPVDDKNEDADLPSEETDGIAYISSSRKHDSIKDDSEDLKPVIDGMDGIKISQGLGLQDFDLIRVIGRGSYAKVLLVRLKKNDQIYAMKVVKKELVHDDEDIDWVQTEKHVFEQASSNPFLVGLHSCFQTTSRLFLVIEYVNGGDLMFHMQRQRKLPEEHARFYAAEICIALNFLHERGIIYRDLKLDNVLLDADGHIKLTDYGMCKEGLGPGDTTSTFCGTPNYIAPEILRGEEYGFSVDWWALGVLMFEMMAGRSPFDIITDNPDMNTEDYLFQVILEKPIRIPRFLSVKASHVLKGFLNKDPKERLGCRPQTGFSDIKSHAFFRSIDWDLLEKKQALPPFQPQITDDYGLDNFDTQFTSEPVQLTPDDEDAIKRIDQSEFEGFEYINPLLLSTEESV

[9] = target: Serine/threonine-protein kinase PAK 5 (Homo sapiens) (UniProt Q9P286); assay: Inhibition of human recombinant PAK5 at 40 nM related to control ULK1
Sequence of Serine/threonine-protein kinase PAK 5 (Homo sapiens) (Q9P286 whole entry, looked up): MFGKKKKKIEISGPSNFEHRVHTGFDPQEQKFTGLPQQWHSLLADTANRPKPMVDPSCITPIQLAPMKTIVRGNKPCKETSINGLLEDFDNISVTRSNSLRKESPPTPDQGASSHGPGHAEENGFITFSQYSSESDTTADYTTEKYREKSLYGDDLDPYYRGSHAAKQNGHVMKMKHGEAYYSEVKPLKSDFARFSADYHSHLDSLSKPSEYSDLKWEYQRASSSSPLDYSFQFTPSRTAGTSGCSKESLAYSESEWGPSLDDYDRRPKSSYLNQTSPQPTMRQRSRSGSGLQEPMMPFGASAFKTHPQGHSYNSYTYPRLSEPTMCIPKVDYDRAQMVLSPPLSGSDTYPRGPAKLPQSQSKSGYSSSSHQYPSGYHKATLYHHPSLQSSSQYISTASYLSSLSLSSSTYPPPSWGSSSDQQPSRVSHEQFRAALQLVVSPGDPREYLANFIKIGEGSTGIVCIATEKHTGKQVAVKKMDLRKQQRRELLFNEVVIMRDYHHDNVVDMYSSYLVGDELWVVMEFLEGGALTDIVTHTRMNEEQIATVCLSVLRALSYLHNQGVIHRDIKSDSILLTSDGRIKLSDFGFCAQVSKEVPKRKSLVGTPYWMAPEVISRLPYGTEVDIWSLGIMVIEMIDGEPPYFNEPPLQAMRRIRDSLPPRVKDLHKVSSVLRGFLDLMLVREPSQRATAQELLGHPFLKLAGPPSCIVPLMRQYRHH

[10] = target: Tyrosine-protein kinase Fyn (Homo sapiens) (UniProt P06241); assay: Inhibition of human recombinant FYN at 40 nM in presence of ATP by radiometric assay relative to control
Sequence of Tyrosine-protein kinase Fyn (Homo sapiens) (P06241 2-537 limits assumed): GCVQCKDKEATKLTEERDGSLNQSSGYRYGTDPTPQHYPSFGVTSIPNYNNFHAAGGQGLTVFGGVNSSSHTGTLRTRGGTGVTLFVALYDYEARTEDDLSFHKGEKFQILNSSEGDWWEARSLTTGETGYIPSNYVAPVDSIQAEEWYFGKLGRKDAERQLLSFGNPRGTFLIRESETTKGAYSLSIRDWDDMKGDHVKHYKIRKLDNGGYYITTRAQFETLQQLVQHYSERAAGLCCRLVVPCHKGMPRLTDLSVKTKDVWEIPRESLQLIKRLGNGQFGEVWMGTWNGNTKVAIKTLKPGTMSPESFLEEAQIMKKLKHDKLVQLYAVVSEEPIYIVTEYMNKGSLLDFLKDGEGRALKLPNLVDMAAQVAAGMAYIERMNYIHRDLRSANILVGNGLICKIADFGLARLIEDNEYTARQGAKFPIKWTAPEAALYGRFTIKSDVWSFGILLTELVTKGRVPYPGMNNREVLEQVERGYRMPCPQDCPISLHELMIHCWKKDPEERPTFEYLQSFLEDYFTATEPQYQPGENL

Sequence of Serine/threonine-protein kinase NIM1 (Homo sapiens) (Q8IY84 whole entry): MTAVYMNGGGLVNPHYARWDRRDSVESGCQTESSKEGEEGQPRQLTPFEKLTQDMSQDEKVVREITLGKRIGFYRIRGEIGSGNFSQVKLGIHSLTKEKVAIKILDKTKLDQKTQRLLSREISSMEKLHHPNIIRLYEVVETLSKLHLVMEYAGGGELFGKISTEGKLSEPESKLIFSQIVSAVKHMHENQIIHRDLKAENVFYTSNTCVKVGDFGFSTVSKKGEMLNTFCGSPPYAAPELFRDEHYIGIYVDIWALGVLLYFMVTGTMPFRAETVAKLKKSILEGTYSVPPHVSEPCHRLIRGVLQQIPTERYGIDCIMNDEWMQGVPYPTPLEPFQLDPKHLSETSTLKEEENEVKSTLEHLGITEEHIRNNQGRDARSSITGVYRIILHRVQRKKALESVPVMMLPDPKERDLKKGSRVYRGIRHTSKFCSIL

CNC(=O)c1ccccc1Oc1nc(Nc2cc(OC)c(OC)c(OC)c2)ncc1Br
inhibition [1]: 0%
inhibition [2]: 0%

CC(C)[C@H](NC(=O)c1cc(-c2cnn3cc(-c4ccc(OCCN5CCCCC5)cc4)cnc23)cs1)C(F)(F)F
fold change (FC) [3]: 0.03
fold change (FC) [4]: 0
fold change (FC) [5]: 0.64
fold change (FC) [6]: 0
fold change (FC) [7]: 0.11
inhibition [8]: 0%

O=C(N[C@@H](C1CC1)C(F)(F)F)c1cc(-c2cnn3cc(-c4ccc(F)cc4)cnc23)cs1
fold change (FC) [9]: 0
inhibition [10]: 0%
